Positions of bridges follow the written chain, without caps; N, C: chain ends. Residues, ends and D or L forms follow the SMILES beside them.

A short description of series [1]: biological activity assay according to the method of Japanese Provisional Patent Publication No. 123500/1985. In kind it is in vivo. The protocol:
The crude (Oct¹, Cys(CA)⁷)-CCT obtained was dissolved in a 1 M acetic acid (5 mg/ml) and purified by the reverse phase high performance liquid chromatography. Chemcopack ODS-H (trade name, ø: 10 mm x 250 mm) column produced by Chemco Co. was used, with the eluents employed being water (100) - 10 % TFA (1) for the eluent A and water (40) -acetonitrile (60) - 10 % TFA (1) for the eluent B, and the elution was effected under the linear concentration gradient from the eluent A to the eluent B. Here, the numerals within bracckets represent volume ratios. The fraction corresponding to (Oct¹, Cys(CA)⁷)-CCT was collected and lyophilized to obtain 2.8 mg of white powder. The biological activity of the white powder obtained was assayed according to the method as described in Japanese Provisional Patent Publication No. 123500/1985. […]

Series [2] in a line: stability test in solution (heat treatment, remaining peak area by reverse phase HPLC). As to conditions: 0.1 M sodium citrate buffer (pH 6.0), 10 µg/ml, sealed tube at 80 °C for 24 hours; stated in words relative to Example 1. The format is physicochemical.
Experimental: The (Oct¹, Cys(CA)⁷)-CCT was dissolved in 0.1 M sodium citrate buffer (pH 6.0) to a concentration of 10 µg/ml. One ml of this solution was left to stand in a sealed tube at 80 °C for 24 hours. By analysis according to the reverse phase HPLC by use of the measurement conditions (1), the eluted peak area A of the remaining (Oct¹, Cys(CA)⁷)-CCT was determined. Similarly, the eluted peak area B of the (Oct¹, Cys(CA)⁷)-CCT in the sample solution not subjected to the heat treatment was determined, and the ratio of A to B (%) was defined as the index.
Setting [3] is: method of Japanese Provisional Patent Publication No. 123500/1985.
The mark [4] stands for this setting: stated in words relative to (Oct¹, Cys(CA)⁷)-CCT of Example 1.

`CC(C)C[C@H](NC(=O)[C@H](CCCCN)NC(=O)CNC(=O)[C@H](CC(C)C)NC(=O)[C@@H](NC(=O)[C@@H]1CSSC[C@H](N)C(=O)N[C@@H](C)C(=O)N[C@@H](CO)C(=O)N[C@@H](CC(C)C)C(=O)N[C@@H](CO)C(=O)N[C@@H]([C@@H](C)O)C(=O)N1)C(C)C)C(=O)N[C@@H](CO)C(=O)N[C@@H](CCC(N)=O)C(=O)N[C@@H](CCC(=O)O)C(=O)N[C@@H](CC(C)C)C(=O)N[C@@H](Cc1c[nH]cn1)C(=O)N[C@@H](CCCCN)C(=O)N[C@@H](CC(C)C)C(=O)N[C@@H](CCC(N)=O)C(=O)N[C@H](C(=O)N[C@@H](Cc1ccc(O)cc1)C(=O)N1CCC[C@H]1C(=O)N[C@@H](CCCNC(=N)N)C(=O)N[C@H](C(=O)N[C@@H](CC(=O)O)C(=O)N[C@H](C(=O)NCC(=O)N[C@@H](C)C(=O)NCC(=O)N[C@H](C(=O)N1CCC[C@H]1C(N)=O)[C@@H](C)O)C(C)C)[C@@H](C)O)[C@@H](C)O` [natural type CCT, reference compound] (H-CASLSTCVLGKLSQELHKLQTYPRTDVGAGTP-NH2; disulfide 1-7) yielded a biological activity in series [1] (setting [3]) of 4500 MRC U/mg.

The compound (Oct¹, Ala³, Cys(CA)⁷)-CCT returned a biological activity in series [1] (setting [3]) of 6100 MRC U/mg.

The compound (Oct¹, Cys(Acm)⁷)-CCT registered a biological activity in series [1] (setting [3]) of 5500 MRC U/mg.

Compound (Oct¹, Cys(Acm)⁷)-ECT displayed a biological activity in series [1] (setting [3]) of 5400 MRC U/mg.

As for (Oct¹, Cys(CA)⁷)-CCT, the values for the biological activity in series [1] (setting [3]) and in series [1] (setting [4]) were 5400 MRC U/mg and “equal to that obtained in Example 1”, respectively.

As for (Oct¹, Cys⁷)-CCT, the “stability (ratio of A to B (%), remaining peak area)” value in series [2] is listed as “substantially equal to those of (Oct¹, Cys(CA)⁷)-CCT of Example 1”. Moreover, the biological activity entry in series [1] (setting [4]) is recorded as “substantially equal to those of (Oct¹, Cys(CA)⁷)-CCT of Example 1”.

In series [1] (setting [3]), (Oct¹, Thr³, Cys(CA)⁷)-CCT had a biological activity of 7800 MRC U/mg.

(pGlu¹, Cys(CA)⁷)-CCT: the “stability (ratio of A to B (%), remaining peak area)” value in series [2] is “substantially equal to those of (Oct¹, Cys(CA)⁷)-CCT of Example 1”. Further, in series [1] (setting [4]), the biological activity result was “substantially equal to those of (Oct¹, Cys(CA)⁷)-CCT of Example 1”.

Source of the values: patent publication EP0298474B1, “Novel calcitonin derivative and salt thereof” (MITSUBISHI PETROCHEMICAL CO., LTD., priority 1987, dated 1992).
